{
  "source": "patent US20060030550A1",
  "about": "“Pharmaceutical formulations” (priority 2004, published 2006)",
  "origin": "cited, not measured here",
  "key": {"[1]": {"settings": "topically active steroid"}, "[2]": {"settings": "preclinical testing"}, "[3]": {"settings": "R112 over placebo, recent study"}},
  "data": [
    {"smiles": "C[C@@H]1C[C@H]2[C@@H]3CCC4=CC(=O)C=C[C@]4(C)[C@@]3(Cl)[C@@H](O)C[C@]2(C)[C@@]1(OC(=O)c1ccco1)C(=O)CCl", "note": "[Mometasone Furoate]", "values": [
      {"measurement": "bioavailability", "setting": "[1]", "value": "not readily bioavailable"}
    ]},
    {"smiles": "O=c1ccn([C@@H]2O[C@H](COP(=O)(O)OP(=O)(O)OP(=O)(O)OP(=O)(O)OC[C@H]3O[C@@H](n4ccc(=O)[nH]c4=O)[C@H](O)[C@@H]3O)[C@@H](O)[C@H]2O)c(=O)[nH]1", "note": "[diquafosol]", "values": [
      {"measurement": "secretions of natural tear components", "setting": "[2]", "value": "increased"}
    ]},
    {"smiles": "Cc1cc(CCCOc2c(C)cc(-c3noc(C(F)(F)F)n3)cc2C)on1", "note": "[Pleconaril, 1,2,4-oxadiazole3-[3,5-Dimethyl-4-[3-(3-methyl-5-isoxazolyl)propoxy]phenyl]-5-(trifluoremethyl)]", "values": [
      {"measurement": "activity against rhinoviruses", "setting": "rhinoviruses", "value": "active against rhinoviruses"}
    ]},
    {"smiles": "Oc1cccc(Nc2ncc(F)c(Nc3cccc(O)c3)n2)c1", "note": "[R112]", "values": [
      {"measurement": "symptoms most closely associated with chronic nasal congestion (e.g. stuffy nose)", "setting": "R112 over placebo", "value": "improved"},
      {"measurement": "absolute difference over placebo", "setting": "[3]", "value": 9, "unit": "%"},
      {"measurement": "relative improvement over placebo", "setting": "[3]", "value": "greater than 20%"},
      {"measurement": "improvement from baseline measurements", "setting": "baseline = prior to drug initiation", "value": "up to 38%"}
    ]}
  ]
}
